According to patent US9360484B2, “Anti-FcRH5 antibodies and immunoconjugates and methods of use” (Genentech, Inc., priority 2009, dated 2016):

Experiments:
[1] = system: OPM2-FcRH5 tumors (OPM2 multiple myeloma cells stably transfected with human FcRH5); experiment: OPM2-FcRH5 xenograft: Hu anti-FcRH5 10A8-MC-vc-PAB-MMAE in combination with Revlimid and Revlimid plus Dexamethasone; format: in vivo, CB17 ICR SCID mice; conditions: for CR (mice with Complete Remission: tumor volume dropped to 0 mm^3) / PR (mice with Partial Regression: tumor volume dropped below 50% of day 0) / TI (number of observable tumors at end of study): 38 day time course, ADC 6 mg/kg single IV day 0, Revlimid 50 mg/kg IP daily, Dexamethasone 3 mg/kg PO; for percent body weight change (FIG. 44): first 17 days
Source text: (§1) Specifically, the ability of the antibody in combination with Revlimid® and Revlimid® plus Dexamethasone to regress tumors in OPM2 cells (Multiple myeloma cell line) stably transfected with human FcRH5 was examined. After transfection of linearized pRK.CMV.PD.nbe.FcRH5 into OPM2 cells and puromycin (Calbiochem, San Diego, Calif.) selection, surviving cells were separated for FcRH5 expressing cells with biotin (Pierce Biotechnology, Rockford, Il) labeled anti-FcRH5.7D11 and MACS anti-Biotin microbeads on an MACS LS column (Miltenyi Biotec, Auburn, Calif.).
For analysis of efficacy of Hu anti-FcRH5 10A8 conjugated to -MC-vc-PAB-MMAE in combination with Revlimid® and Revlimid® plus Dexamethasone, female CB17 ICR SCID mice (6-8 weeks of age from Charles Rivers Laboratories; Hollister, Calif.) were inoculated subcutaneously with 2×10^7 OPM2-FcRH5 cells via injection into the flanks of CB17 ICR SCID mice and the xenograft tumors were allowed to grow to an average of 446 mm^3. Day 0 refers to the day the tumors were 263-630 mm^3 and when the first/or only dose of treatment was administered, unless indicated specifically below. Tumor volume was calculated based on two dimensions, measured using calipers, and was expressed in mm3 according to the formula: V=0.5a×b^2, where a and b are the long and the short diameters of the tumor, respectively. Data collected from each experimental group were expressed as mean+SE. Mice were randomized into nine groups of 8 mice each and dosed. Group 1 received daily intraperitoneal (IP) injections of a mixture of DMSO and MCT buffer on Days 0-13 as a vehicle control. […] Group 4 received daily IP injections of 50 mg/kg Revlimid® on Days 0-13. Group 5 received daily oral (PO) dosing of 3 mg/kg Dexamethasone for four days followed by three days off for two cycles on Days 0-3 and 7-10. Group 6 received daily IP injections of 50 mg/kg Revlimid® on Days 0-13 plus daily PO dosing of 3 mg/kg Dexamethasone for four days followed by three days off for two cycles on Days 0-3 and 7-10. […] Tumors were measured twice a week throughout the experiment. Body weights of mice were measured twice a week throughout the experiment. If mice experienced a body weight loss of greater than 15% compared to their body weight on Day 0, mice were weighed daily until weight regained or until body weight loss reached greater than 20%. […] All animal protocols were approved by an Institutional Animal Care and Use Committee (IACUC).

OPM2-FcRH5 tumors = experiment: Inhibition of in vivo tumor growth, OPM2-FcRH5 xenografts, hu10A8-MC-vc-PAB-MMAE alone and in combination with Velcade (Example 8, Table 14); parameters: species or system CB17 ICR SCID mice
Source text: as §1, with “antibody” for “antibody in combination with Revlimid®”, “Velcade®” for “Revlimid® plus Dexamethasone”
For analysis of efficacy of hu anti-FcRH5 10A8 conjugated with MC-vc-PAB-MMAE alone and in combination with Velcade®, female CB17 ICR SCID mice (6-8 weeks of age from Charles Rivers Laboratories; Hollister, Calif.) were inoculated subcutaneously with 2×10^7 OPM2-FcRH5 cells via injection into the flanks of CB17 ICR SCID mice and the xenograft tumors were allowed to grow to an average of 331 mm^3. Day 0 refers to the day the tumors were 172-511 mm^3 and when the first/or only dose of treatment was administered, unless indicated specifically below. Tumor volume was calculated based on two dimensions, measured using calipers, and was expressed in mm3 according to the formula: V=0.5a×b^2, where a and b are the long and the short diameters of the tumor, respectively. Data collected from each experimental group were expressed as mean±SE. Mice were randomized into nine groups of 9 mice each and dosed. Group 1 received a single intravenous (IV) injection of histidine buffer on Day 0 plus IV injections of 0.9% sodium chloride (saline) twice weekly for two weeks on Days 0, 3, 7, and 10 as a vehicle control. […] Group 3 received IV injections of 1 mg/kg Velcade® twice weekly for two weeks on Days 0, 3, 7, and 10. Group 4-5 received a single IV injection of 4 or 10 mg/kg thio hu anti-FcRH5(10A8)-HC-MC-vc-PAB-MMAE, CNJ 1465, respectively, on Day 0. […] Tumors were measured twice a week throughout the experiment. Body weights of mice were measured twice a week for the first three weeks. […] All animal protocols were approved by an Institutional Animal Care and Use Committee (IACUC).

[2] = system: OPM2-FcRH5 tumors (OPM2 multiple myeloma cells stably transfected with human FcRH5); experiment: OPM2-FcRH5 xenograft: Hu anti-FcRH5 10A8-SPDB-DM4 alone and in combination with Velcade; format: in vivo, CB17 ICR SCID mice
Source text: Specifically, the ability of the antibody and Velcade® to regress tumors in OPM2 cells (Multiple myeloma cell line) stably transfected with human FcRH5 was examined. After transfection of linearized […]5 into OPM2 cells and puromycin (Calbiochem, San Diego, Calif.) selection, surviving cells were separated for FcRH5 expressing cells with biotin (Pierce Biotechnology, Rockford, Il) labeled anti-FcRH5.7D11 and MACS anti-Biotin microbeads on an MACS LS column (Miltenyi Biotec, Auburn, Calif.). […] Data collected from each experimental group were expressed as mean±SE. Mice were randomized into six groups of 9 mice each and dosed. […] Group 2 received a single IV injection of histidine buffer on Day 0 plus IV injections of 0.9% sodium chloride (saline) twice weekly for two weeks on Days 0, 3, 7, and 10 as a vehicle control. […] Tumors were measured twice a week throughout the experiment. Body weights of mice were measured twice a week for the first three weeks. […] All animal protocols were approved by an Institutional Animal Care and Use Committee (IACUC).

cynomolgus FcRH5 = experiment: Cyno cross-reactivity by FACS on stably transfected cells (SVT2 cells expressing cynoFcRH5); format: binding, cynomolgus monkey; parameters: key to Cyno X-reactivity (FACS) on stable transfected cells: X*: *Very slight at saturating concentration
Description: For additional FACS analysis of FcRH5 antibodies, 1.0 μg, 0.1 μg or 0.01 μg of antibody was titrated per million cells of BJAB cells stably expressing huFcRH5 and SVT2 cells stably expressing cynoFcRH5. Briefly, approximately 10^6 cells in 100 μl were incubated with varying amounts (1.0 ug, 01. ug or 0.01 ug) of murine Ab mu1H4, mu6H1, mu7D11, mu9E2, mu10A8, mu10F5, or mu13G9 per million cells of BJAB cells stably expressing huFcRH5 and SVT2 cells stably expressing cynoFcRH5. Incubation with 1.0 ug/10^6 cells of the appropriate Mu IgG isotype control was used as a negative control. PE conjugated Rat anti-MuIgG1 or Rat anti-MuIgG2a+b was used as the secondary detection antibody.

BJAB-FcRH5 tumors = experiment: In vivo tumor cell killing assay, BJAB-FcRH5 xenografts (Example 4); parameters: species or system CB17 ICR SCID mice; conditions: unconjugated antibody, 10.8 mg/kg i.v. day 0 and day 7, 8 mice
Description: To test the efficacy of various anti-FcRH5 antibodies, murine anti-human antibodies were conjugated to DM1 and the effect of the conjugated variant on tumors in mice were analyzed.
Specifically, the ability of the antibodies to regress tumors in BJAB-luciferase cells (Burkitt's lymphoma cell line stably transfected with human FcRH5.
After transfection of pRK.CMV.PD.nbe.FcRH5 into BJAB-luciferase cells and puromycin (Calbiochem, San Diego, Calif.) selection, surviving cells were FACS autocloned for mid range expressers with anti-FcRH5 antibodies (7D11). Post autoclone, the BJAB-luciferase cell line expressing FcRH5 most closely resembling plasma cell expression, as determined by FACS, was chosen by FACS analysis using anti-FcRH5 antibodies (7D11). As a negative control, BJAB-luciferase transfected, in the same manner, with the empty vector pRK.CMV.PD.nbe were used.
For analysis of efficacy mouse antibodies, female CB17 ICR SCID mice (6-8 weeks of age from Charles Rivers Laboratories; Hollister, Calif.) were inoculated subcutaneously with 2×10^7 BJAB-FcRH5 cells via injection into the flanks of CB17 ICR SCID mice and the xenograft tumors were allowed to grow to an average of 128 mm^3. Day 0 refers to the day the tumors were an average of 100-250 mm^3 and when the first/or only dose of treatment was administered, unless indicated specifically below. Tumor volume was calculated based on two dimensions, measured using calipers, and was expressed in mm^3 according to the formula: V=0.5a×b^2, where a and b are the long and the short diameters of the tumor, respectively. Data collected from each experimental group were expressed as mean±SE. Groups of 8 mice were treated with a weekly intravenous (i.v.) dose of 400 μg of antibody-linked drug/m^2 mouse (corresponding to ˜8-10 mg ADC/kg of mouse) with anti-FcRH5 ADC or control antibody-drug conjugates at day 0 and day 7. Tumors were measured twice a week throughout the experiment. Body weights of mice were measured either once a week throughout the experiment. […]

[3] = Velcade 1 mg/kg twice weekly for two weeks (Days 0, 3, 7, 10), OPM2-FcRH5 xenograft, CB17 ICR SCID mice
[4] = 37 day time course, ADC 4 mg/kg single IV day 0, Velcade 1 mg/kg IV days 0, 3, 7, 10

Chain of cynomolgus FcRH5 (as listed by the source): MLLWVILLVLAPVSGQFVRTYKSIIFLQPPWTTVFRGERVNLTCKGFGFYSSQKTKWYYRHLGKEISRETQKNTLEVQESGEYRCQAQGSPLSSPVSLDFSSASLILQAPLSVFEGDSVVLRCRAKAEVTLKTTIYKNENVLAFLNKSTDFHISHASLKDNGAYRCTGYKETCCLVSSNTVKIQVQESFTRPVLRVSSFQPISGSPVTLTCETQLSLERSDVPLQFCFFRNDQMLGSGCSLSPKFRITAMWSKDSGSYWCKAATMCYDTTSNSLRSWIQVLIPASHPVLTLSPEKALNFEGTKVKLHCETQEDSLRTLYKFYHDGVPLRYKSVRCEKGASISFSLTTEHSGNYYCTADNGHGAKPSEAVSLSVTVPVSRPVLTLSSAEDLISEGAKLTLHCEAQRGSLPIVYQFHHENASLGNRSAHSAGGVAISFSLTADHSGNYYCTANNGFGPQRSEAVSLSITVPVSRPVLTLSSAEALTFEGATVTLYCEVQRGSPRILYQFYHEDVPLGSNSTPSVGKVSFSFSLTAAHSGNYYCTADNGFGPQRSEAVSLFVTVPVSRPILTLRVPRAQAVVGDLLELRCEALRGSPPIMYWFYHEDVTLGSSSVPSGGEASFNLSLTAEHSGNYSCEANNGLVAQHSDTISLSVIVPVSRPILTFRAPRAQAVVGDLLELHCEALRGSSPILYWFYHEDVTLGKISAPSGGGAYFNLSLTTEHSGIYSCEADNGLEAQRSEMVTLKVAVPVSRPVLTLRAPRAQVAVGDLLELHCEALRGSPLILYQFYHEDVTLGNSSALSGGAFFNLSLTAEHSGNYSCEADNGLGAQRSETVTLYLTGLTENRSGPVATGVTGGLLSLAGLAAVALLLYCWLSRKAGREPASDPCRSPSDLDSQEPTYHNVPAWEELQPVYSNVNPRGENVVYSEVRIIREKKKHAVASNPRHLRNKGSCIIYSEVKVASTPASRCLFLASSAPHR

With `Nc1cccc2c1CN(C1CCC(=O)NC1=O)C2=O` (stereo not drawn) [Revlimid, lenalidomide] the “CR (mice with Complete Remission: tumor volume dropped to 0 mm^3)” value [1] was 0, the “PR (mice with Partial Regression: tumor volume dropped below 50% of day 0)” value [1] was 0 and the “TI (number of observable tumors at end of study)” value [1] was 4/4. The “percent body weight change (FIG. 44)” value [1] was “caused a significant decrease in body weight or weight loss”.

In the case of `CC(C)C[C@H](NC(=O)[C@H](Cc1ccccc1)NC(=O)c1cnccn1)B(O)O` [Velcade ®], the “CR (Complete Remission; number of mice with tumor volume dropped to 0 mm^3)” value (OPM2-FcRH5 tumors; [3]) is reported as 0, the “PR (Partial Regression; number of mice with tumor volume below 50% of day 0 volume)” value (OPM2-FcRH5 tumors; [3]) is reported as 0 and the “TI (number of observable tumors at end of study)” value (OPM2-FcRH5 tumors; [3]) is reported as 9/9. The “CR (mice with Complete Remission: tumor volume dropped to 0 mm^3)” value [2, 4] was 0, the “PR (mice with Partial Regression: tumor volume dropped below 50% of day 0)” value [2, 4] was 0 and the “TI (number of observable tumors at end of study)” value [2, 4] was 8/8.

`CC(C)C[C@H](NC(=O)[C@H](Cc1ccccc1)NC(=O)c1cnccn1)B(O)O` [Velcade®, bortezomib] was tested, and the “percent body weight change” value (OPM2-FcRH5 tumors; first 24 days, 1 mg/kg IV twice weekly for two weeks) was “caused a decrease in body weight or weight loss through the duration of treatment, but weight rebounded after dosing was complete” and the “percent body weight change (FIG. 42)” value ([2]; first 21 days) was “did not cause a significant decrease in body weight or weight loss”.

In the case of `C[C@@H]1C[C@H]2[C@@H]3CCC4=CC(=O)C=C[C@]4(C)[C@@]3(F)[C@@H](O)C[C@]2(C)[C@@]1(O)C(=O)CO` [Dexamethasone], the “CR (mice with Complete Remission: tumor volume dropped to 0 mm^3)” value [1] is reported as 0, the “PR (mice with Partial Regression: tumor volume dropped below 50% of day 0)” value [1] is reported as 0 and the “TI (number of observable tumors at end of study)” value [1] is reported as 5/5. For the same molecule, the “percent body weight change (FIG. 44)” value [1] was “caused a significant decrease in body weight or weight loss”.

B1: 7D11: murine monoclonal antibody binding human FcRH5 (antibody, V domains shown)
VH: EVQLVESGGGLVQPGGSLKLSCAASGFTFSSYGMSWVRQTPDKRLELVATITRNGGTTYYLDSVKGRFTISRDNAKNTLYLQMSSLKSEDTAMYYCARGPIYYDYGYAMDYWGQGTTVTVSS
VL: DILLTQSPAILSVSPGERVSFSCRSSQSIGTNIHWYQQRTNGSPRLLIKFASESLSGIPSRFSGSGSGTDFTLSINSVESEDFADYYCQQSNSWPLTFGAGTKVEIK
With B1 the “Cyno X-reactivity (FACS) on stable transfected cells” value (cynomolgus FcRH5) was “X*”, the “cross reaction with cynomolgus FcRH5 by FACS analysis” value (cynomolgus FcRH5; 1.0, 0.1 or 0.01 μg antibody per million SVT2 cells stably expressing cynoFcRH5) was “cross react with cynomolgus FcRH5” and the “CR (Complete Remission, number of mice)” value (BJAB-FcRH5 tumors) was 0. For the same molecule, the “PR (Partial Regression, number of mice)” value (BJAB-FcRH5 tumors) was 0 and the “TI (number of observable tumors at end of study)” value (BJAB-FcRH5 tumors) was 8/8.
